The values below come from ChEMBL document CHEMBL1201862, “PubChem BioAssay data set” (2004).

Test systems include OVCAR-3; OVCAR-5; TK-10; MDA-MB-231; BT-549; NCI-H522; T47D; UO-31; M14; HCT-116; UACC-257; CAKI-1; NCI-H23; HOP-92; SW-620; HCT-15; 786-0; RPMI-8226; CCRF-CEM.
What all share (test): growth of human tumour cells (NCI), 48 h

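Tested at 5 concentrations; 48 h exposure; 96-well plates; endpoints linearly interpolated, else capped at highest concentration. GI50: concentration for 50% inhibition of growth.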 The source made the active and inactive calls. Cut-off read from the data, not from the text of the source: active = GI50 up to about 1.1 µM and inactive = higher.

`COc1cccc2c1C(=O)c1ccc3cc(CCl)cc(O)c3c1C2=O`: the GI50 was 0.243 µM (active) in the assay on OVCAR-3; 0.157 µM (active) in the assay with OVCAR-5; 0.238 µM (active) in the assay on TK-10; 0.205 µM (active) in the assay on MDA-MB-231; 0.305 µM (active) in the assay with BT-549; 0.552 µM (active) with NCI-H522. Besides, the GI50 is 1.2 µM (inactive) in the assay with T47D; 0.336 µM (active) in the assay with UO-31; 0.229 µM (active) with M14; 0.1 µM (active) in the assay on HCT-116; 0.269 µM (active) with UACC-257; 0.733 µM (active) in the assay with CAKI-1. Besides, the GI50 with NCI-H23 is 0.402 µM (active); in the assay with HOP-92 it was 0.394 µM (active); in the assay on SW-620, 0.127 µM (active); in the assay with HCT-15, 0.254 µM; in the assay with 786-0 it was 0.174 µM (active); with RPMI-8226, 0.182 µM (active). In addition, the GI50 with CCRF-CEM was 0.309 µM (active).

In the case of `O=C1CC(NC2CC(=O)c3c(Br)sc(Br)c32)c2c(Br)sc(Br)c21` (centres undefined), the GI50 in the assay on OVCAR-3 was 4.44 µM (inactive); with OVCAR-5, 20.2 µM (inactive); in the assay on TK-10, 2.88 µM (inactive); in the assay with MDA-MB-231, 3.42 µM (inactive); with BT-549, 14.1 µM (inactive); in the assay with NCI-H522, 1.81 µM (inactive). In addition, the GI50 in the assay with T47D was 2.46 µM (inactive); with UO-31 it was 2.24 µM (inactive); in the assay on M14 it was 5.58 µM (inactive); with HCT-116, 2.14 µM (inactive); with UACC-257, 2.03 µM (inactive); with CAKI-1 it was 3.63 µM (inactive). Besides, the GI50 in the assay on NCI-H23 is 9.48 µM (inactive); with HOP-92, 6 µM (inactive); in the assay with SW-620 it was 2.08 µM (inactive); in the assay with HCT-15 it was 2.94 µM; in the assay on 786-0, 1.51 µM (inactive); in the assay on RPMI-8226 it was 0.597 µM (active). Besides, in the assay with CCRF-CEM, the GI50 was 0.998 µM (active).

Regarding `CC1=NN(c2nc(N)nc(/C(C#N)=C/c3cccn3-c3cc(Cl)cc(Cl)c3)n2)C(C)(C)C1`, the GI50 with OVCAR-3 is > 100 µM (inactive); in the assay on OVCAR-5, > 100 µM (inactive); with TK-10, > 100 µM (inactive); in the assay with MDA-MB-231, 41.2 µM (inactive); with BT-549, > 100 µM (inactive); in the assay with NCI-H522, > 100 µM (inactive). The GI50 with T47D, in the assay on UO-31, in the assay with M14, in the assay on HCT-116, in the assay on UACC-257 and in the assay with CAKI-1 was > 100 µM (inactive) each time. Moreover, the GI50 in the assay with NCI-H23 was > 100 µM (inactive); in the assay with HOP-92, > 100 µM (inactive); in the assay on SW-620, > 100 µM (inactive); with HCT-15, greater than 100 µM; with 786-0, > 100 µM (inactive); in the assay on RPMI-8226 it was > 100 µM (inactive). In the assay with CCRF-CEM, the GI50 was 4.47 µM (inactive).

Take `OC1(C(F)(F)F)OCCN=C1C(F)(F)F` (centres undefined): the GI50 in the assay on OVCAR-3 was 52 µM (inactive); in the assay with OVCAR-5 it was > 100 µM (inactive); with TK-10, > 100 µM (inactive); with MDA-MB-231, > 100 µM (inactive); in the assay with BT-549, 56.2 µM (inactive); in the assay on NCI-H522 it was 40.4 µM (inactive). Also, the GI50 in the assay with T47D is > 100 µM (inactive); in the assay on UO-31, > 100 µM (inactive); with M14, > 100 µM (inactive); with HCT-116, 51.5 µM (inactive); in the assay on UACC-257 it was > 100 µM (inactive); in the assay on CAKI-1 it was 52.2 µM (inactive). Moreover, the GI50 with NCI-H23 is > 100 µM (inactive); in the assay on HOP-92, 60.5 µM (inactive); in the assay with SW-620 it was 56.2 µM (inactive); in the assay with HCT-15, 64.4 µM; with 786-0 it was > 100 µM (inactive); with RPMI-8226, > 100 µM (inactive). Further, the GI50 in the assay with CCRF-CEM was 46.8 µM (inactive).

As for `Cc1nc2ccc(S(=O)(=O)O)cc2c(=O)n1-c1ccc(C(=O)NN2C(=O)C(Cl)C2c2ccccc2O)cc1` (centres undefined), the GI50 with OVCAR-3, in the assay on OVCAR-5, in the assay on TK-10, in the assay on MDA-MB-231, with BT-549 and in the assay with NCI-H522 was > 100 µM (inactive) throughout. Moreover, the GI50 in the assay with T47D, with UO-31, in the assay with M14, with HCT-116, with UACC-257 and in the assay on CAKI-1 was > 100 µM (inactive) each time. For the same compound, the GI50 with NCI-H23 is > 100 µM (inactive); with HOP-92, > 100 µM (inactive); in the assay with SW-620, > 100 µM (inactive); with HCT-15, greater than 100 µM; in the assay on 786-0, > 100 µM (inactive); with RPMI-8226, > 100 µM (inactive). Moreover, the GI50 in the assay on CCRF-CEM is > 100 µM (inactive).

Turning to `C/N=c1\sc2nc(C#N)c(C#N)nc2n1C`, the GI50 in the assay on OVCAR-3 was 24.5 µM (inactive); in the assay with OVCAR-5, 19.2 µM (inactive); in the assay on TK-10 it was 25.5 µM (inactive); with MDA-MB-231 it was 40.1 µM (inactive); in the assay on BT-549 it was 28.8 µM (inactive); with NCI-H522, 15 µM (inactive). The GI50 in the assay on T47D is 34 µM (inactive); in the assay on UO-31, 20.4 µM (inactive); in the assay with M14, 23 µM (inactive); in the assay on HCT-116 it was 18.9 µM (inactive); in the assay with UACC-257, 24.2 µM (inactive); in the assay on CAKI-1, 23.8 µM (inactive). Further, the GI50 with NCI-H23 is 18.3 µM (inactive); in the assay with HOP-92 it was 21.2 µM (inactive); with SW-620, 18.4 µM (inactive); with HCT-15, 19.2 µM; in the assay with 786-0 it was 25.8 µM (inactive); in the assay on RPMI-8226, 44.4 µM (inactive). In the assay with CCRF-CEM, the GI50 is 19.7 µM (inactive).

For the compound `NC1CC(=O)c2csc(Br)c21` (centres undefined), the GI50 with OVCAR-3 was 15.3 µM (inactive); in the assay on OVCAR-5, 14.4 µM (inactive); in the assay with TK-10 it was 12.9 µM (inactive); in the assay with MDA-MB-231 it was 23.9 µM (inactive); in the assay with BT-549, 11.8 µM (inactive); with NCI-H522 it was 2.05 µM (inactive). The GI50 in the assay with T47D was 24 µM (inactive); in the assay on UO-31 it was 16 µM (inactive); in the assay on M14, 19.5 µM (inactive); in the assay on HCT-116, 11.2 µM (inactive); in the assay with UACC-257, 17.3 µM (inactive); in the assay with CAKI-1 it was 10.9 µM (inactive). Besides, the GI50 in the assay on NCI-H23 was 17.1 µM (inactive); with HOP-92, 9.89 µM (inactive); with SW-620 it was 4.84 µM (inactive); in the assay on HCT-15, 7.71 µM; in the assay on 786-0, 12.9 µM (inactive); in the assay on RPMI-8226, 4.82 µM (inactive). Further, the GI50 in the assay on CCRF-CEM is 4.15 µM (inactive).

For `Cc1cccc(C(C)C)c1NC(=O)C(=O)CC(=O)c1sc(Nc2ccccc2Cl)nc1C`, the GI50 with OVCAR-3 was 32 µM (inactive); in the assay with OVCAR-5, > 100 µM (inactive); in the assay with TK-10 it was 90.2 µM (inactive); with MDA-MB-231, 41 µM (inactive); in the assay on BT-549, 32.7 µM (inactive); with NCI-H522 it was 40.5 µM (inactive). Besides, the GI50 with T47D was 35.8 µM (inactive); in the assay on UO-31 it was 18.9 µM (inactive); with M14 it was 19.5 µM (inactive); in the assay with HCT-116, 8.79 µM (inactive); in the assay on UACC-257, 54.5 µM (inactive); with CAKI-1, 85.3 µM (inactive). In addition, the GI50 is 35 µM (inactive) in the assay with NCI-H23; 10.4 µM (inactive) with HOP-92; 35.2 µM (inactive) with SW-620; 30.9 µM in the assay with HCT-15; 32.8 µM (inactive) in the assay with 786-0; 13.3 µM (inactive) in the assay with RPMI-8226. Besides, the GI50 in the assay with CCRF-CEM is 30.3 µM (inactive).

`CCOC(=O)C(C(=S)Nc1ccccc1)c1nn2c(=O)cc(C)nc2s1` (centres undefined): the GI50 was 24.5 µM (inactive) in the assay on OVCAR-3; 35.3 µM (inactive) in the assay with OVCAR-5; 29.7 µM (inactive) in the assay on TK-10; 31.8 µM (inactive) in the assay with MDA-MB-231; 25.2 µM (inactive) in the assay with BT-549; 22.3 µM (inactive) with NCI-H522. Also, the GI50 in the assay with T47D is 25.5 µM (inactive); in the assay with UO-31, 22.2 µM (inactive); in the assay on M14, 22.9 µM (inactive); with HCT-116, 20.8 µM (inactive); with UACC-257, 22.7 µM (inactive); with CAKI-1, 20.1 µM (inactive). Further, the GI50 with NCI-H23 was 35.6 µM (inactive); with HOP-92, 16.4 µM (inactive); in the assay with SW-620, 46.7 µM (inactive); in the assay on HCT-15, 27.7 µM; with 786-0, 39.8 µM (inactive); in the assay on RPMI-8226 it was 26.3 µM (inactive). In addition, in the assay on CCRF-CEM, the GI50 is 33.8 µM (inactive).

For `C/C(=N\NC(=S)N1CCCCCC1)c1cccc2cccnc12`, the GI50 in the assay on OVCAR-3 was 0.0203 µM (active); in the assay on OVCAR-5, > 19.9 µM (inactive); in the assay on TK-10 it was 2.48 µM (inactive); in the assay with MDA-MB-231 it was 2.12 µM (inactive); in the assay with BT-549, 16 µM (inactive); with NCI-H522 it was 0.193 µM (active). Besides, the GI50 with T47D is 0.966 µM (active); in the assay on UO-31, 1.94 µM (inactive); in the assay on M14 it was 1.55 µM (inactive); with HCT-116 it was 0.634 µM (active); with UACC-257 it was 2.58 µM (inactive); in the assay on CAKI-1, 0.355 µM (active). Besides, the GI50 was 1.32 µM (inactive) with NCI-H23; 11.7 µM (inactive) with HOP-92; 1.55 µM (inactive) with SW-620; 0.287 µM in the assay on HCT-15; 2.01 µM (inactive) in the assay with 786-0; 0.109 µM (active) with RPMI-8226. Further, in the assay on CCRF-CEM, the GI50 was < 0.01 µM (active).

With `COc1ccc(CCNC(=O)Cc2cc(OC)c(OC)cc2CO)cc1OC`, the GI50 in the assay with OVCAR-3, with OVCAR-5, in the assay on TK-10, in the assay with MDA-MB-231, in the assay on BT-549 and with NCI-H522 was > 100 µM (inactive) each time. Besides, the GI50 with T47D, in the assay on UO-31, with M14, in the assay on HCT-116, in the assay with UACC-257 and with CAKI-1 was > 100 µM (inactive) each time. Moreover, the GI50 with NCI-H23 is > 100 µM (inactive); with HOP-92, > 100 µM (inactive); in the assay on SW-620 it was > 100 µM (inactive); in the assay on HCT-15, greater than 100 µM; with 786-0, > 100 µM (inactive); in the assay on RPMI-8226, > 100 µM (inactive). Further, the GI50 in the assay on CCRF-CEM was > 100 µM (inactive).
